Results on 22 compounds are retold here after US9434727B2, “Substituted 4-phenylpiperidines, their preparation and use” (THE TRUSTEES OF COLUMBIA UNIVERSITY IN THE CITY OF NEW YORK, priority 2014, dated 2016).

SMILES strings stand for the structures.

Test [1] concerns the target RBP4-TTR interaction (Homo sapiens (Human), UniProt P02753). Briefly: TR-FRET (HTRF) assay for retinol-induced RBP4-TTR interaction. Type of test: biochemical. To be noted: in the presence of 1 μM retinol; read-out: HTRF assay for antagonists of RBP4-TTR interaction: IC50. An excerpt:
TR-FRET assay for retinol-induced RBP4-TTR interaction Binding of a desired RBP4 antagonist displaces retinol and induces hindrance for RBP4-TTR interaction resulting in the decreased FRET signal (FIG. 7). Bacterially expressed MBP-RBP4 and untagged TTR were used in this assay. […] Following cell lysis, recombinant RBP4 was purified from the soluble fraction using the ACTA FPLC system (GE Healthcare) equipped with the 5-ml the MBP Trap HP column. Human untagged TTR was purchased from Calbiochem. Untagged TTR was labeled directly with Eu^3+ Cryptate-NHS using the HTRF Cryptate Labeling kit from CisBio following the manufacturer's recommendations. HTRF assay was performed in white low volume 384 well plates (Greiner-Bio) in a final assay volume of 16 μl per well. The reaction buffer contained 10 mM Tris-HCl pH 7.5, 1 mM DTT, 0.05% NP-40, 0.05% Prionex, 6% glycerol, and 400 mM KF. […] Titration of test compounds in this assay was conducted in the presence of 1 μM retinol. All reactions were assembled in the dark under dim red light and incubated overnight at +4° C. wrapped in aluminum foil. TR-FRET signal was measured in the SpectraMax M5e Multimode Plate Reader (Molecular Device). […] The TR-FRET signal was expressed as the ratio of fluorescence intensity: Flu665/Flu620×10,000.

The target in test [2] is RBP4 (Homo sapiens (Human), UniProt P02753). The test can be described thus: Scintillation proximity (SPA) RBP4 binding assay. Conditions: 10 nM 3H-Retinol, 50 nM biotinylated RBP4. As to the method: Scintillation Proximity RBP4 Binding Assay
Untagged human RBP4 purified from urine of tubular proteinuria patients was purchased from Fitzgerald Industries International. It was biotinylated using the EZ-Link Sulfo-NHS-LC-Biotinylation kit from Pierce following the manufacturer's recommendations. Binding experiments were performed in 96-well plates (OptiPlate, PerkinElmer) in a final assay volume of 100 μl per well in SPA buffer (IX PBS, pH 7.4, 1 mM EDTA, 0.1% BSA, 0.5% CHAPS). The reaction mix contained 10 nM ^3H-Retinol (48.7 Ci/mmol; PerkinElmer), 0.3 mg/well Streptavidin-PVT beads, 50 nM biotinylated RBP4 and a test compound. Nonspecific binding was determined in the presence of 20 μM of unlabeled retinol. The reaction mix was assembled in the dark under dim red light. The plates were sealed with clear tape (TopSeal-A: 96-well microplate, PerkinElmer), wrapped in the aluminum foil, and allowed to equilibrate 6 hours at room temperature followed by overnight incubation at +4° C. Radiocounts were measured using a TopCount NXT counter (Packard Instrument Company).
Background: SPA uses beads or plates that emit light when radiolabelled molecules are held near them.

`N#CN1Cc2[nH]nc(C(=O)N3CCC(c4ccc(F)c(F)c4C(F)(F)F)CC3)c2C1` [Compound 110, 3-(4-(3,4-difluoro-2-(trifluoromethyl)phenyl)piperidine-1-carbonyl)-4,6-dihydropyrrolo[3,4-c]pyrazole-5(1H)-carbonitrile]: the IC50 (usually the midpoint of a concentration-inhibition curve) came to 0.0154 µM in test [1] and 0.0156 µM in test [2].
The matching figures for `CCN1CCc2c(C(=O)N3CCC(c4ccc(F)c(F)c4C(F)(F)F)CC3)n[nH]c2C1` [Compound 111, (4-(3,4-Difluoro-2-(trifluoromethyl)phenyl)piperidin-1-yl)(6-ethyl-4,5,6,7-tetrahydro-1H-pyrazolo[3,4-c]pyridin-3-yl)methanone]: 0.0221 µM and 0.00689 µM.
The matching figures for `CNC(=O)N1CCc2[nH]nc(C(=O)N3CCC(c4cccc(F)c4C(F)(F)F)CC3)c2C1` [Compound 114, 3-(4-(3-Fluoro-2-(trifluoromethyl)phenyl)piperidine-1-carbonyl)-N-methyl-6,7-dihydro-1H-pyrazolo[4,3-c]pyridine-5(4)-carboxamide]: 0.0408 µM and 0.0103 µM.
For `O=C(O)CN1CCc2c(C(=O)N3CCC(c4ccc(F)c(F)c4C(F)(F)F)CC3)n[nH]c2C1` [Compound 115, 2-(3-(4-(3,4-Difluoro-2-(trifluoromethyl)phenyl)piperidine-1-carbonyl)-1,4,5,7-tetrahydro-6H-pyrazolo[3,4-c]pyridin-6-yl)acetic acid], in that order: 0.109 µM and 0.0189 µM.
Consider `COC(=O)N1CCc2c(C(=O)N3CCC(c4ccc(F)c(F)c4C(F)(F)F)CC3)n[nH]c2C1` [Compound 116, Methyl 3-(4-(3,4-difluoro-2-(trifluoromethyl)phenyl)piperidine-1-carbonyl)-1,4,5,7-tetrahydro-6H-pyrazolo[3,4-c]pyridine-6-carboxylate], for which the results for the IC50 in test [1] and in test [2] were 0.0237 µM and 0.0114 µM, respectively.
For `O=C(c1n[nH]c2c1CCN(C1COC1)C2)N1CCC(c2ccc(F)c(F)c2C(F)(F)F)CC1` [Compound 117, (4-(3,4-Difluoro-2-(trifluoromethyl)phenyl)piperidin-1-yl)(6-(oxetan-3-yl)-4,5,6,7-tetrahydro-1H-pyrazolo[3,4-c]pyridin-3-yl)methanone], in that order: 0.0377 µM and 0.00548 µM.
For `O=C(c1n[nH]c2c1CCN(CC1CC1)C2)N1CCC(c2ccc(F)c(F)c2C(F)(F)F)CC1` [Compound 118, (6-(Cyclopropylmethyl)-4,5,6,7-tetrahydro-1Hpyrazolo[3,4-c]pyridin-3-yl)(4-(3,4-difluoro-2-(trifluoromethyl)phenyl)piperidin-1-yl)methanone], in that order: 0.0142 µM and 0.00939 µM.
Turning to `O=C(c1n[nH]c2c1CCN(CCC(F)(F)F)C2)N1CCC(c2ccc(F)c(F)c2C(F)(F)F)CC1` [Compound 119, (4-(3,4-Difluoro-2(trifluoromethyl)phenyl)piperidin-1-yl)(6-(3,3,3-trifluoropropyl)-4,5,6,7-tetrahydro-1H-pyrazolo[3,4-c]pyridin-3-yl)methanone], the results for the IC50 in test [1] and in test [2] were 0.0394 µM and 0.0107 µM, respectively.
Turning to `CCC(=O)N1CCc2c(C(=O)N3CCC(c4ccc(F)c(F)c4C(F)(F)F)CC3)n[nH]c2C1` [Compound 122, 1-(3-(4-(3,4-Difluoro-2-(trifluoromethyl)phenyl)piperidine-1-carbonyl)-1,4,5,7-tetrahydro-6H-pyrazolo[3,4-c]pyridin-6-yl)propan-1-one], the IC50 in test [1] came out at 0.0277 µM; in test [2], 0.017 µM.
For `CC(C)CC(=O)N1CCc2c(C(=O)N3CCC(c4ccc(F)c(F)c4C(F)(F)F)CC3)n[nH]c2C1` [Compound 123, 1-(3-(4-(3,4-Difluoro-2-(trifluoromethyl)phenyl)piperidine-1-carbonyl)-1,4,5,7-tetrahydro-6H-pyrazolo[3,4-c]pyridin-6-yl)-3-methylbutan-1-one], the IC50 in test [1] worked out at 0.0522 µM; in test [2], 0.0151 µM.
The matching figures for `CC(C)(C)CN1CCc2c(C(=O)N3CCC(c4ccc(F)c(F)c4C(F)(F)F)CC3)n[nH]c2C1` [Compound 126, (4-(3,4-Difluoro-2(trifluoromethyl)phenyl)piperidin-1-yl)(6-neopentyl-4,5,6,7-tetrahydro-1H-pyrazolo[3,4-c]pyridin-3-yl)methanone]: 0.17 µM and 0.017 µM.
For the compound `COCCN1CCc2[nH]nc(C(=O)N3CCC(c4cc(F)cc(F)c4C(F)(F)F)CC3)c2C1` [Compound 127, (4-(3,5-Difluoro-2-(trifluoromethyl)phenyl)piperidin-1-yl)(5-(2-methoxyethyl)-4,5,6,7-tetrahydro-1H-pyrazolo[4,3-c]pyridin-3-yl)methanone], the IC50 in test [1] came out at 0.017 µM; in test [2], 0.0159 µM.
The matching figures for `O=C(c1n[nH]c2c1CN(CCC(F)(F)F)CC2)N1CCC(c2cc(F)cc(F)c2C(F)(F)F)CC1` [Compound 129, (4-(3,5-Difluoro-2-(trifluoromethyl)phenyl)piperidin-1-yl)(5-(3,3,3-trifluoropropyl)-4,5,6,7-tetrahydro-1H-pyrazolo[4,3-c]pyridin-3-yl)methanone]: 0.0195 µM and 0.0138 µM.
Turning to `COC(=O)N1CCc2c(C(=O)N3CCC(c4cc(F)cc(F)c4C(F)(F)F)CC3)n[nH]c2C1` [Compound 130, Methyl 3-(4-(3,5-difluoro-2-(trifluoromethyl)phenyl)piperidine-1-carbonyl)-1,4,5,7-tetrahydro-6H-pyrazolo[3,4-c]pyridine-6-carboxylate], the 50% inhibitory concentration (IC50) in test [1] was determined as 0.0149 µM; in test [2], 0.0128 µM.
Take `CC(=O)N1CCc2c(C(=O)N3CCC(c4cc(F)cc(F)c4C(F)(F)F)CC3)n[nH]c2C1` [Compound 131, 1-(3-(4-(3,5-Difluoro-2-(trifluoromethyl)phenyl)piperidine-1-carbonyl)-4,5-dihydro-1H-pyrazolo[3,4-c]pyridin-6(7H)-yl)ethanone]: the IC50 in test [1] amounted to 0.0109 µM; in test [2], 0.00636 µM.
For `N#Cc1ccc2nnc(C(=O)N3CCC(c4cc(F)cc(F)c4C(F)(F)F)CC3)n2c1` [Compound 132, 3-(4-(3,5-Difluoro-2-(trifluoromethyl)phenyl)piperidine-1-carbonyl)-[1,2,4]triazolo[4,3-a]pyridine-6-carbonitrile], in that order: 0.0105 µM and 0.00675 µM.
With `COC(=O)N1CCc2[nH]nc(C(=O)N3CCC(c4cc(F)cc(F)c4C(F)(F)F)CC3)c2C1` [Compound 138, Methyl 3-(4-(3,5-difluoro-2-(trifluoro-methyl)phenyl)piperidine-1-carbonyl)-6,7-dihydro-1H-pyrazolo[4,3-c]pyridine-5(4H)-carboxylate], the half-maximal inhibitory concentration (IC50) is 0.0244 µM in test [1] and 0.0101 µM in test [2].
Turning to `CC(=O)N1CCc2c(C(=O)N3CCC(c4cc(F)ccc4C(F)(F)F)CC3)n[nH]c2C1` [Compound 140, 1-(3-(4-(5-fluoro-2-(trifluoromethyl)phenyl)piperidine-1-carbonyl)-4,5-dihydro-1H-pyrazolo[3,4-c]pyridin-6(7H)-yl)ethanone], the IC50 in test [1] is 0.0219 µM; in test [2], 0.00928 µM.
For `CC(=O)N1CCc2c(C(=O)N3CCC(c4cc(F)ccc4Cl)CC3)n[nH]c2C1` [Compound 143, 1-(3-(4-(2-chloro-5-fluorophenyl)piperidine-1-carbonyl)-4,5-dihydro-1H-pyrazolo[3,4-c]pyridin-6(7H)-yl)ethanone], in that order: 0.0523 µM and 0.00883 µM.
For `CS(=O)(=O)N1CCc2[nH]nc(C(=O)N3CCC(c4cc(F)ccc4Cl)CC3)c2C1` [Compound 144, (4-(2-chloro-5-fluorophenyl)piperidin-1-yl)(5-(methylsulfonyl)-4,5,6,7-tetrahydro-1H-pyrazolo[4,3-c]pyridin-3-yl)methanone], in that order: 0.0703 µM and 0.00617 µM.
For `N#Cc1ccc2nnc(C(=O)N3CCC(c4cc(F)ccc4Cl)CC3)n2c1` [Compound 145, 3-(4-(2-Chloro-5-fluorophenyl)piperidine-1-carbonyl)-[1,2,4]triazolo[4,3-a]pyridine-6-carbonitrile], in that order: 0.067 µM and 0.00757 µM.
As to `O=C(c1n[nH]c2c1CCN(CC1CC1)C2)N1CCC(c2cccc(F)c2Cl)CC1` [Compound 146, (4-(2-chloro-3-(fluorophenyl)piperidin-1-yl)(6-cyclopropylmethyl)-4,5,6,7-tetrahydro-1H-pyrazolo[3,4-c]pyridine-3-yl)methanone], the IC50 worked out at 0.0365 µM in test [1] and 0.0159 µM in test [2].
